Experimental data taken from the NIST ThermoML archive (doi:10.1021/je0602519).
± gives the expanded uncertainty stated by the source.

Test: xn = mol fraction of the nth substance listed
Details: 101 kPa, Liquid; for speed of sound: Frequency=2 MHz, Linear variable-path acoustic interferometer; for mass density: Pycnometric method

CCCCCCCCCCO [decan-1-ol] + Cc1ccccc1
Details | mass density, 303.15 K [kg/m3] | mass density, 313.15 K [kg/m3] | speed of sound, 303.15 K [m/s] | speed of sound, 313.15 K [m/s] | viscosity, 303.15 K [mPa·s] | viscosity, 313.15 K [mPa·s]
x2 = 0 | 822.87 ± 0.29 | 815.97 ± 0.31 | 1366 ± 3 | 1334 ± 3 | 9.716 ± 0.37 | 6.82 ± 0.28
x2 = 0.0507 | 823.76 ± 0.3 | 816.74 ± 0.31 | 1361 ± 3 | 1327 ± 3 | 8.474 ± 0.33 | 6.06 ± 0.26
x2 = 0.1015 | 824.73 ± 0.3 | 817.58 ± 0.31 | 1355 ± 3 | 1320 ± 3 | 7.424 ± 0.3 | 5.343 ± 0.23
x2 = 0.1473 | 825.62 ± 0.3 | 818.34 ± 0.31 | 1349 ± 3 | 1314 ± 3 | 6.635 ± 0.27 | 4.771 ± 0.21
x2 = 0.2091 | 826.88 ± 0.3 | 819.45 ± 0.31 | 1340 ± 3 | 1305 ± 3 | 5.658 ± 0.24 | 4.059 ± 0.18
x2 = 0.2577 | 827.9 ± 0.3 | 820.38 ± 0.31 | 1333 ± 3 | 1297 ± 3 | 4.962 ± 0.22 | 3.552 ± 0.16
x2 = 0.3006 | 828.84 ± 0.3 | 821.2 ± 0.3 | 1327 ± 3 | 1292 ± 3 | 4.458 ± 0.2 | 3.112 ± 0.14
x2 = 0.3496 | 829.95 ± 0.3 | 822.24 ± 0.31 | 1318 ± 3 | 1283 ± 3 | 3.848 ± 0.17 | 2.71 ± 0.12
x2 = 0.4028 | 831.22 ± 0.3 | 823.38 ± 0.31 | 1311 ± 3 | 1275 ± 3 | 3.32 ± 0.15 | 2.263 ± 0.11
x2 = 0.4516 | 832.48 ± 0.3 | 824.49 ± 0.31 | 1303 ± 3 | 1268 ± 2 | 2.843 ± 0.13 | 1.903 ± 0.09
x2 = 0.4989 | 833.77 ± 0.3 | 825.69 ± 0.31 | 1295 ± 3 | 1261 ± 2 | 2.499 ± 0.11 | 1.678 ± 0.08
x2 = 0.5497 | 835.29 ± 0.3 | 827.06 ± 0.31 | 1290 ± 3 | 1255 ± 2 | 2.152 ± 0.1 | 1.47 ± 0.071
x2 = 0.6009 | 836.92 ± 0.3 | 828.57 ± 0.31 | 1285 ± 3 | 1249 ± 2 | 1.883 ± 0.088 | 1.305 ± 0.064
x2 = 0.6498 | 838.61 ± 0.3 | 830.11 ± 0.31 | 1280 ± 3 | 1245 ± 2 | 1.594 ± 0.075 | 1.162 ± 0.057
x2 = 0.7065 | 840.8 ± 0.3 | 832.12 ± 0.31 | 1275 ± 3 | 1240 ± 2 | 1.414 ± 0.068 | 0.994 ± 0.05
x2 = 0.7524 | 842.7 ± 0.3 | 833.86 ± 0.31 | 1274 ± 2 | 1239 ± 2 | 1.15 ± 0.056 | 0.905 ± 0.046
x2 = 0.8069 | 845.15 ± 0.3 | 836.21 ± 0.31 | 1273 ± 2 | 1239 ± 2 | 1.021 ± 0.05 | 0.79 ± 0.041
x2 = 0.8472 | 847.18 ± 0.3 | 838.04 ± 0.31 | 1274 ± 2 | 1240 ± 2 | 0.887 ± 0.045 | 0.732 ± 0.038
x2 = 0.9063 | 850.54 ± 0.31 | 841.18 ± 0.32 | 1278 ± 3 | 1243 ± 2 | 0.75 ± 0.039 | 0.64 ± 0.034
x2 = 0.9489 | 853.12 ± 0.31 | 843.58 ± 0.32 | 1282 ± 3 | 1248 ± 2 | 0.599 ± 0.032 | 0.565 ± 0.031

CCCCCCCO [heptan-1-ol] + Cc1ccccc1
Details | mass density, 303.15 K [kg/m3] | mass density, 313.15 K [kg/m3] | speed of sound, 303.15 K [m/s] | speed of sound, 313.15 K [m/s] | viscosity, 303.15 K [mPa·s] | viscosity, 313.15 K [mPa·s]
x2 = 0 | 814.89 ± 0.29 | 807.68 ± 0.3 | 1313 ± 3 | 1279 ± 3 | 5.048 ± 0.22 | 3.712 ± 0.17
x2 = 0.0525 | 816.52 ± 0.29 | 809.17 ± 0.3 | 1310 ± 3 | 1274 ± 3 | 4.404 ± 0.19 | 3.362 ± 0.15
x2 = 0.1014 | 818.06 ± 0.29 | 810.59 ± 0.3 | 1307 ± 3 | 1271 ± 3 | 3.859 ± 0.17 | 3.074 ± 0.14
x2 = 0.1518 | 819.67 ± 0.29 | 812.07 ± 0.3 | 1304 ± 3 | 1267 ± 3 | 3.4 ± 0.15 | 2.77 ± 0.12
x2 = 0.1859 | 820.78 ± 0.29 | 813.13 ± 0.31 | 1301 ± 3 | 1263 ± 2 | 3.154 ± 0.14 | 2.55 ± 0.12
x2 = 0.2489 | 822.84 ± 0.3 | 815.02 ± 0.31 | 1296 ± 3 | 1258 ± 3 | 2.645 ± 0.12 | 2.226 ± 0.1
x2 = 0.3011 | 824.61 ± 0.3 | 816.69 ± 0.31 | 1291 ± 3 | 1251 ± 2 | 2.314 ± 0.11 | 1.986 ± 0.092
x2 = 0.3504 | 826.34 ± 0.3 | 818.24 ± 0.31 | 1286 ± 3 | 1247 ± 2 | 2.042 ± 0.094 | 1.77 ± 0.082
x2 = 0.4006 | 828.07 ± 0.3 | 819.87 ± 0.31 | 1282 ± 3 | 1242 ± 2 | 1.796 ± 0.084 | 1.583 ± 0.074
x2 = 0.4494 | 829.88 ± 0.3 | 821.57 ± 0.31 | 1278 ± 3 | 1237 ± 2 | 1.594 ± 0.075 | 1.436 ± 0.068
x2 = 0.5003 | 831.83 ± 0.3 | 823.35 ± 0.31 | 1274 ± 3 | 1233 ± 2 | 1.399 ± 0.067 | 1.271 ± 0.061
x2 = 0.5486 | 833.72 ± 0.3 | 825.14 ± 0.31 | 1271 ± 3 | 1230 ± 2 | 1.25 ± 0.06 | 1.144 ± 0.056
x2 = 0.5903 | 835.44 ± 0.3 | 826.72 ± 0.31 | 1269 ± 3 | 1227 ± 2 | 1.113 ± 0.054 | 1.069 ± 0.052
x2 = 0.6493 | 837.95 ± 0.3 | 829.09 ± 0.31 | 1266 ± 3 | 1226 ± 2 | 0.982 ± 0.049 | 0.965 ± 0.048
x2 = 0.7011 | 840.28 ± 0.3 | 831.32 ± 0.31 | 1266 ± 3 | 1225 ± 2 | 0.888 ± 0.045 | 0.84 ± 0.043
x2 = 0.752 | 842.69 ± 0.3 | 833.57 ± 0.31 | 1267 ± 3 | 1226 ± 2 | 0.776 ± 0.04 | 0.772 ± 0.04
x2 = 0.8041 | 845.27 ± 0.3 | 836.02 ± 0.31 | 1268 ± 3 | 1228 ± 2 | 0.673 ± 0.035 | 0.682 ± 0.036
x2 = 0.8495 | 847.69 ± 0.3 | 838.32 ± 0.31 | 1272 ± 3 | 1232 ± 2 | 0.635 ± 0.034 | 0.639 ± 0.034
x2 = 0.9009 | 850.55 ± 0.31 | 841.07 ± 0.32 | 1276 ± 3 | 1239 ± 2 | 0.588 ± 0.032 | 0.573 ± 0.031
x2 = 0.9487 | 853.39 ± 0.31 | 843.85 ± 0.32 | 1282 ± 3 | 1245 ± 2 | 0.546 ± 0.03 | 0.528 ± 0.029

CCCCCCCCO [octan-1-ol] + Cc1ccccc1
Details | mass density, 303.15 K [kg/m3] | mass density, 313.15 K [kg/m3] | speed of sound, 303.15 K [m/s] | speed of sound, 313.15 K [m/s] | viscosity, 303.15 K [mPa·s] | viscosity, 313.15 K [mPa·s]
x2 = 0 | 818.38 ± 0.29 | 811.05 ± 0.3 | 1334 ± 3 | 1304 ± 3 | 6.433 ± 0.26 | 4.603 ± 0.2
x2 = 0.0495 | 819.62 ± 0.29 | 812.14 ± 0.3 | 1329 ± 3 | 1300 ± 3 | 5.63 ± 0.24 | 4.13 ± 0.18
x2 = 0.1104 | 821.19 ± 0.29 | 813.56 ± 0.31 | 1325 ± 3 | 1293 ± 3 | 4.775 ± 0.21 | 3.645 ± 0.16
x2 = 0.1513 | 822.25 ± 0.29 | 814.55 ± 0.31 | 1321 ± 3 | 1287 ± 3 | 4.281 ± 0.19 | 3.261 ± 0.15
x2 = 0.1999 | 823.55 ± 0.3 | 815.73 ± 0.31 | 1316 ± 3 | 1282 ± 3 | 3.788 ± 0.17 | 2.832 ± 0.13
x2 = 0.2517 | 824.98 ± 0.3 | 817.04 ± 0.31 | 1310 ± 3 | 1274 ± 3 | 3.28 ± 0.15 | 2.545 ± 0.12
x2 = 0.2997 | 826.34 ± 0.3 | 818.29 ± 0.31 | 1304 ± 3 | 1268 ± 2 | 2.952 ± 0.13 | 2.218 ± 0.1
x2 = 0.356 | 828.02 ± 0.3 | 819.85 ± 0.31 | 1297 ± 3 | 1262 ± 2 | 2.504 ± 0.11 | 1.944 ± 0.09
x2 = 0.3998 | 829.32 ± 0.3 | 821.03 ± 0.31 | 1291 ± 3 | 1255 ± 2 | 2.229 ± 0.1 | 1.715 ± 0.081
x2 = 0.4506 | 830.99 ± 0.3 | 822.56 ± 0.31 | 1286 ± 3 | 1250 ± 2 | 1.974 ± 0.091 | 1.518 ± 0.072
x2 = 0.5001 | 832.63 ± 0.3 | 824.08 ± 0.31 | 1281 ± 3 | 1242 ± 2 | 1.758 ± 0.082 | 1.37 ± 0.066
x2 = 0.5513 | 834.46 ± 0.3 | 825.77 ± 0.31 | 1276 ± 3 | 1238 ± 2 | 1.541 ± 0.073 | 1.175 ± 0.057
x2 = 0.6014 | 836.31 ± 0.3 | 827.51 ± 0.31 | 1272 ± 3 | 1234 ± 2 | 1.35 ± 0.065 | 1.084 ± 0.053
x2 = 0.6495 | 838.22 ± 0.3 | 829.3 ± 0.31 | 1270 ± 3 | 1231 ± 2 | 1.214 ± 0.059 | 0.935 ± 0.047
x2 = 0.6997 | 840.36 ± 0.3 | 831.29 ± 0.31 | 1268 ± 3 | 1228 ± 2 | 1.065 ± 0.052 | 0.866 ± 0.044
x2 = 0.7569 | 842.9 ± 0.3 | 833.69 ± 0.31 | 1267 ± 3 | 1228 ± 2 | 0.931 ± 0.047 | 0.754 ± 0.039
x2 = 0.8012 | 845.02 ± 0.3 | 835.74 ± 0.31 | 1268 ± 3 | 1229 ± 2 | 0.819 ± 0.042 | 0.703 ± 0.037
x2 = 0.8527 | 847.7 ± 0.3 | 838.28 ± 0.31 | 1269 ± 3 | 1232 ± 2 | 0.733 ± 0.038 | 0.636 ± 0.034
x2 = 0.9 | 850.32 ± 0.31 | 840.85 ± 0.32 | 1273 ± 3 | 1236 ± 2 | 0.646 ± 0.034 | 0.558 ± 0.03
x2 = 0.954 | 853.6 ± 0.31 | 844 ± 0.32 | 1280 ± 3 | 1245 ± 2 | 0.576 ± 0.031 | 0.526 ± 0.029
